According to patent US10105443B2, “Sustained-release drug carrier composition” (POLYPID LTD., priority 2008, dated 2018):

Assays:
Format in all cases: physicochemical
[1] = Release of drug from bone filler particles coated with the matrix composition following hydration; details: for kinetics of co-release from the surface of coated bone particles: surrounding medium 5% PBS at 37° C., FIG. 15; for period of constant release of DOX: bone filler particles (BioOss) coated with matrix PLGA 85:15, cholesterol, DSPC (18:0), with or without alpha-tocopherol
Procedure: • 50-75 KDa PLGA (poly (lactic-co-glycolic acid, 85:15 ratio)) • Cholesterol-50%-100% w/w vs. PLGA. The mixture is mixed. The entire process is performed at room temperature. A fat-polymer combination matrix is thus obtained. II. Preparation of Second Solution The following materials are mixed with a volatile organic solvent (methanol and ethyl acetate) • a. […] A phosphatidylcholine, —1,2-distearoyl-sn-glycero-3-phosphocholine (DSPC) present as 300-700% w/w vs. PLGA. The mixture is mixed well. The entire process is conducted at room temperature. When phosphatidylcholine having long saturated fatty chains is used (e.g. DSPC) the process is typically performed at higher temperatures of about 40-50° C. No water is required in the mixture. […] Stirring is continued for 1-5 minutes. The entire process is performed at a temperature of 20-50° C. depending of the lipid used. IV—Evaporation Following Surface Coating In order to coat bone filler particles, the particles are added to the mixture of stage III followed by evaporation of the volatile organic solvents. The entire process is performed at a temperature of 40-50° C. The ratio between the volume and the percentage of solids in the mixture of stage III and the mass of the bone particles will determine the release period of the drug post hydration of the coated particles. V—Vacuum Drying Coated bone particles are vacuum-dried for storage. […] The rate of sustained release of Doxycycline hyclate encapsulated within the matrix composition of the present invention was measured and compared to the release rate of the drug from bone particles socked with free DOX solution (having the same amount of DOX).
The release profile of DOX from a mixture of coated and non coated bone (xenografts bovine—commercial—BioOss) particles was measured. The coated particles were mixed with similar plain (not-coated) bone particles in a ratio of 1:4. […] The formulation in this study comprised PLGA 75:25 and DPPC.
The release of DOX from bone particles (12 mg/sample) coated with different mass of the DOX containing matrix formulation was compared. Following hydration (5% serum at 37° C.) the duration of release of 90% of the initial DOX amount in the formulation was monitored (FIG. 10).

[2] = Influence of polymer/lipid composition of the matrix on release rate of the entrapped agent; details: FIG. 8
Procedure: The influence of different polymer/lipid compositions on the release rate of a given drug was measured using fluorescein entrapped within a matrix compositing PLGA (75:25), DPPC as the main phospholipid and varying amounts of lauric acid (LA) and phosphatidylethanolamine (PE) having saturated fatty acid moieties of at least 14 carbons. […] The release lasted between about 20 to about 110 days when LA:PE w/w % ratio was varied between 10:10 to 0:0 respectively (vs. the total mass of the formulation). The drug release profile from bone particles coated with matrix formulation comprising PE versus bone particles coated with matrix formulation comprising cholesterol was compared.
The fact that different polymer/lipid compositions influence the release rate can be used to fulfill different clinical needs. […] In contrast, when the antibiotic drug, DOX, was associated with a slow degrading polymer such as PLGA 85:15 and a 18:0 phospholipid such as DSPC, complete release of the drug was accomplished after more than 50 days (FIG. 8).

[3] = Drug release from absorbable gelatin sponge containing the sustained release formulation (HPLC); details: 5% serum at 37° C.
Procedure: A solution containing PLGA—75:25, PC 16:0, cholesterol 10% and Doxycycline hyclate (DOX) 10% was injected into the center of the absorbable gelatin sponge foam cube (Gelatamp. ROEKO). The overall content of DOX in the injected formulation was 380 μg in 25 μl. The solvent was evaporated in a 37° C. incubator and subsequently over night under vacuum. As a control, the common use of pre-wetting with a similar dose of DOX (380 μg) solution was injected into the gelatin sponge tube. Following hydration (5% serum at 37° C.) the release of DOX from the gelatin sponge cube into the surrounding was detected and quantified by HPLC.

CCCCCCCCCCCCCCCC(=O)OC[C@H](COP(=O)([O-])OCC[N+](C)(C)C)OC(=O)CCCCCNc1ccc([N+](=O)[O-])c2nonc12 [NBD-PC, 1-palmitoyl-2-{6-[(7-nitro-2-1,3-benzoxadiazol-4-yl)amino]hexanoyl}-sn-glycero-3-phosphocholine]
kinetics of co-release from the surface of coated bone particles [1]: zero order kinetics

CC(C(=O)O)c1ccc(-c2ccccc2)c(F)c1 (stereo not shown) [NSAID, Flurbiprofen]
time to full release of the drug ([2]; PLGA 50:50 and 14:0 phospholipid DMPC): ≤ 10 days

Doxycycline hyclate
time to complete release of the drug ([2]; PLGA 85:15 and 18:0 phospholipid DSPC): more than 50 days | share of encapsulated DOX released following zero order kinetics ([1]; DOX encapsulated in the formulation, FIG. 2): ~70% | period of constant release of DOX [1]: at least 3 weeks | period of constant release of DOX ([1]; listed as Doxycycline hyclate): about three | release kinetics ([1]; bone filler particles coated with matrix PLGA 85:15, cholesterol, DSPC, FIG. 2): zero order kinetics | dependence of duration of release of 90% of DOX on formulation mass ([1]; bone particles 12 mg/sample coated with different mass of formulation, 5% serum at 37° C., FIG. 10): linearly depended on the formulation mass | drug released in 3 hours after hydration ([1]; bone particles coated with PLGA 75:25 / DPPC formulation, mixed 1:4 with non-coated particles, 5% serum at 37° C.): about 15% | release profile, matrix comprising PE (DMPE) versus matrix comprising cholesterol ([1]; coated bone particles, 5% serum at 37° C., FIG. 7): behaves similarly | effect of presence of non-coated particles on release of DOX from the formulation ([1]; coated:non-coated bone particles 1:4, 5% serum at 37° C., PLGA 75:25 and DPPC): not affected | kinetics of co-release from the surface of coated bone particles [1]: zero order kinetics | drug released in 3 hours after hydration ([1]; uncoated bone particles soaked with free DOX (control), 5% serum at 37° C.): 88% | DOX released immediately into the medium ([3]; control: gelatin sponge pre-wetted with DOX solution (380 μg)): total amount | DOX released into the medium immediately after hydration ([3]; gelatin sponge (Gelatamp) with PLGA 75:25, PC 16:0, cholesterol 10%, DOX 10%, 380 μg DOX): about 40% | period of gradual release of the rest of the drug ([3]; gelatin sponge with PLGA 75:25, PC 16:0, cholesterol 10%, DOX 10%): more than 7 days
